In ChEMBL document CHEMBL2202954, “The effect of PLC-γ2 inhibitors on the growth of human tumour cells” (2012):

Tests used:
Type in all cases: functional
SF-268 = assay: Cytotoxicity against human SF268 cells assessed as cellular growth at 10 uM by SRB assay
NCI-H23 = assay: Cytotoxicity against human NCI-H23 cells assessed as cellular growth at 10 uM by SRB assay
SK-MEL-2 = assay: Cytotoxicity against human SK-MEL-2 cells assessed as cellular growth at 10 uM by SRB assay
HCT-15 = assay: Cytotoxicity against human HCT15 cells assessed as cellular growth at 10 uM by SRB assay
SW-620 = assay: Cytotoxicity against human SW620 cells assessed as cellular growth at 10 uM by SRB assay
NCI-H460 = assay: Cytotoxicity against human NCI-H460 cells assessed as cellular growth at 10 uM by SRB assay
PC-3 = assay: Cytotoxicity against human PC3 cells assessed as cellular growth at 10 uM by SRB assay
K562 = assay: Cytotoxicity against human K562 cells assessed as cellular growth at 10 uM by SRB assay
A549 = assay: Cytotoxicity against human A549 cells assessed as cellular growth at 10 uM by SRB assay
MDA-MB-468 = assay: Cytotoxicity against human MDA-MB-468 cells assessed as cellular growth at 10 uM by SRB assay
OVCAR-8 = assay: Cytotoxicity against human OVCAR8 cells assessed as cellular growth at 10 uM by SRB assay
EKVX = assay: Cytotoxicity against human EKVX cells assessed as cellular growth at 10 uM by SRB assay
SF-539 = assay: Cytotoxicity against human SF539 cells assessed as cellular growth at 10 uM by SRB assay
MDA-MB-231 = assay: Cytotoxicity against human MDA-MB-231 cells assessed as cellular growth at 10 uM by SRB assay
UACC-62 = assay: Cytotoxicity against human UACC62 cells assessed as cellular growth at 10 uM by SRB assay
M14 = assay: Cytotoxicity against human M14 cells assessed as cellular growth at 10 uM by SRB assay
SF-295 = assay: Cytotoxicity against human SF295 cells assessed as cellular growth at 10 uM by SRB assay
IGROV-1 = assay: Cytotoxicity against human IGROV1 cells assessed as cellular growth at 10 uM by SRB assay
HOP-62 = assay: Cytotoxicity against human HOP62 cells assessed as cellular growth at 10 uM by SRB assay
T47D = assay: Cytotoxicity against human T47D cells assessed as cellular growth at 10 uM by SRB assay
U-251 = assay: Cytotoxicity against human U251 cells assessed as cellular growth at 10 uM by SRB assay
KM12 = assay: Cytotoxicity against human KM12 cells assessed as cellular growth at 10 uM by SRB assay
786-0 = assay: Cytotoxicity against human 786-0 cells assessed as cellular growth at 10 uM by SRB assay
SK-MEL-5 = assay: Cytotoxicity against human SK-MEL-5 cells assessed as cellular growth at 10 uM by SRB assay
RXF 393 = assay: Cytotoxicity against human RXF393 cells assessed as cellular growth at 10 uM by SRB assay
RPMI-8226 = assay: Cytotoxicity against human RPMI8226 cells assessed as cellular growth at 10 uM by SRB assay
LOX IMVI = assay: Cytotoxicity against human LOXIMVI cells assessed as cellular growth at 10 uM by SRB assay
DU-145 = assay: Cytotoxicity against human DU145 cells assessed as cellular growth at 10 uM by SRB assay
HT-29 = assay: Cytotoxicity against human HT-29 cells assessed as cellular growth at 10 uM by SRB assay
HL-60(TB) = assay: Cytotoxicity against human HL-60(TB) cells assessed as cellular growth at 10 uM by SRB assay
CCRF-CEM = assay: Cytotoxicity against human CCRF-CEM cells assessed as cellular growth at 10 uM by SRB assay
ACHN = assay: Cytotoxicity against human ACHN cells assessed as cellular growth at 10 uM by SRB assay
OVCAR-5 = assay: Cytotoxicity against human OVCAR5 cells assessed as cellular growth at 10 uM by SRB assay
UO-31 = assay: Cytotoxicity against human UO31 cells assessed as cellular growth at 10 uM by SRB assay
SK-MEL-28 = assay: Cytotoxicity against human SK-MEL-28 cells assessed as cellular growth at 10 uM by SRB assay
UACC-257 = assay: Cytotoxicity against human UACC257 cells assessed as cellular growth at 10 uM by SRB assay
SNB-75 = assay: Cytotoxicity against human SNB75 cells assessed as cellular growth at 10 uM by SRB assay
SN12C = assay: Cytotoxicity against human SN12C cells assessed as cellular growth at 10 uM by SRB assay
MCF7 = assay: Cytotoxicity against human MCF7 cells assessed as cellular growth at 10 uM by SRB assay
Hs-578T = assay: Cytotoxicity against human Hs578T cells assessed as cellular growth at 10 uM by SRB assay
HCT-116 = assay: Cytotoxicity against human HCT116 cells assessed as cellular growth at 10 uM by SRB assay
[1] = Cytotoxicity against human NCI-ADR-RES cells assessed as cellular growth at 10 uM by SRB assay
SNB-19 = assay: Cytotoxicity against human SNB19 cells assessed as cellular growth at 10 uM by SRB assay
SK-OV-3 = assay: Cytotoxicity against human SKOV3 cells assessed as cellular growth at 10 uM by SRB assay
A498 = assay: Cytotoxicity against human A498 cells assessed as cellular growth at 10 uM by SRB assay
NCI-H522 = assay: Cytotoxicity against human NCI-H522 cells assessed as cellular growth at 10 uM by SRB assay
OVCAR-3 = assay: Cytotoxicity against human OVCAR3 cells assessed as cellular growth at 10 uM by SRB assay
BT-549 = assay: Cytotoxicity against human BT549 cells assessed as cellular growth at 10 uM by SRB assay
OVCAR-4 = assay: Cytotoxicity against human OVCAR4 cells assessed as cellular growth at 10 uM by SRB assay
HOP-92 = assay: Cytotoxicity against human HOP92 cells assessed as cellular growth at 10 uM by SRB assay
Malme-3M = assay: Cytotoxicity against human MALME-3M cells assessed as cellular growth at 10 uM by SRB assay
CAKI-1 = assay: Cytotoxicity against human Caki1 cells assessed as cellular growth at 10 uM by SRB assay
MOLT-4 = assay: Cytotoxicity against human MOLT4 cells assessed as cellular growth at 10 uM by SRB assay
COLO 205 = assay: Cytotoxicity against human COLO205 cells assessed as cellular growth at 10 uM by SRB assay
TK-10 = assay: Cytotoxicity against human TK10 cells assessed as cellular growth at 10 uM by SRB assay
HCC 2998 = assay: Cytotoxicity against human HCC2998 cells assessed as cellular growth at 10 uM by SRB assay
NCI-H226 = assay: Cytotoxicity against human NCI-H226 cells assessed as cellular growth at 10 uM by SRB assay
NCI-H322M = assay: Cytotoxicity against human NCI-H322M cells assessed as cellular growth at 10 uM by SRB assay
MDA-MB-435 = assay: Cytotoxicity against human MDA-MB-435 cells assessed as cellular growth at 10 uM by SRB assay

Cc1ccc(CNC(=O)c2[nH]c3ccccc3c2Cl)cc1
Activity (SF-268): 86.83% | Activity (NCI-H23): 95.25% | Activity (SK-MEL-2): 99.35% | Activity (HCT-15): 106.3% | Activity (SW-620): 89.73% | Activity (NCI-H460): 88.87% | Activity (PC-3): 93.19% | Activity (K562): 100.85% | Activity (A549): 96.66% | Activity (MDA-MB-468): 106.86% | Activity (OVCAR-8): 99.35% | Activity (EKVX): 91.13% | Activity (SF-539): 110.44% | Activity (MDA-MB-231): 112.08% | Activity (UACC-62): 100.21% | Activity (M14): 115.09% | Activity (SF-295): 94.21% | Activity (IGROV-1): 99.38% | Activity (HOP-62): 90.94% | Activity (T47D): 84.33% | Activity (U-251): 92.16% | Activity (KM12): 89.46% | Activity (786-0): 102.13% | Activity (SK-MEL-5): 99.25% | Activity (RXF 393): 109.98% | Activity (RPMI-8226): 101.73% | Activity (LOX IMVI): 97.73% | Activity (DU-145): 97.89% | Activity (HT-29): 100.16% | Activity (HL-60(TB)): 113.42% | Activity (CCRF-CEM): 99.93% | Activity (ACHN): 112.34% | Activity (OVCAR-5): 108.38% | Activity (UO-31): 110.2% | Activity (SK-MEL-28): 113.18% | Activity (UACC-257): 101.14% | Activity (SNB-75): 123.78% | Activity (SN12C): 99.14% | Activity (MCF7): 98.84% | Activity (Hs-578T): 95.86% | Activity (HCT-116): 107.58% | Activity [1]: 92.34% | Activity (SNB-19): 105.35% | Activity (SK-OV-3): 92.6% | Activity (A498): 69% | Activity (NCI-H522): 106.22% | Activity (OVCAR-3): 95.55% | Activity (BT-549): 115.69% | Activity (OVCAR-4): 101.65% | Activity (HOP-92): 81.7% | Activity (Malme-3M): 116.06% | Activity (CAKI-1): 90.46% | Activity (MOLT-4): 91.47% | Activity (COLO 205): 99.99% | Activity (TK-10): 124.52% | Activity (HCC 2998): 101.22% | Activity (NCI-H226): 96.65% | Activity (NCI-H322M): 111.04%

Clc1ccccc1Nc1nnc(-c2ccncc2)s1
Activity (SF-268): 104.7% | Activity (NCI-H23): 102% | Activity (SK-MEL-2): 106.68% | Activity (HCT-15): 112.25% | Activity (SW-620): 91.55% | Activity (NCI-H460): 99.69% | Activity (PC-3): 97.24% | Activity (K562): 101.4% | Activity (MDA-MB-435): 93.62% | Activity (A549): 94.98% | Activity (MDA-MB-468): 110.42% | Activity (OVCAR-8): 100.07% | Activity (EKVX): 91.68% | Activity (SF-539): 107.62% | Activity (MDA-MB-231): 107.89% | Activity (UACC-62): 95.3% | Activity (M14): 103.83% | Activity (SF-295): 88.68% | Activity (IGROV-1): 100.52% | Activity (HOP-62): 117.96% | Activity (T47D): 89.46% | Activity (U-251): 102.87% | Activity (KM12): 107.17% | Activity (786-0): 80.21% | Activity (SK-MEL-5): 97.75% | Activity (RXF 393): 107.3% | Activity (RPMI-8226): 89.16% | Activity (LOX IMVI): 110.09% | Activity (HT-29): 105.3% | Activity (HL-60(TB)): 79.12% | Activity (CCRF-CEM): 95.96% | Activity (ACHN): 104.09% | Activity (OVCAR-5): 106.94% | Activity (UO-31): 90.67% | Activity (SK-MEL-28): 100.34% | Activity (UACC-257): 107.89% | Activity (SNB-75): 105.58% | Activity (SN12C): 86% | Activity (MCF7): 96.02% | Activity (Hs-578T): 94.94% | Activity (HCT-116): 101.59% | Activity [1]: 101.59% | Activity (SNB-19): 99.81% | Activity (SK-OV-3): 104.92% | Activity (A498): 92.09% | Activity (NCI-H522): 98.62% | Activity (OVCAR-3): 109.8% | Activity (BT-549): 90.37% | Activity (OVCAR-4): 94.51% | Activity (HOP-92): 93.87% | Activity (Malme-3M): 108.85% | Activity (CAKI-1): 90.5% | Activity (MOLT-4): 93.42% | Activity (COLO 205): 114.33% | Activity (TK-10): 110.92% | Activity (HCC 2998): 106.44% | Activity (NCI-H226): 100.58% | Activity (NCI-H322M): 93.72%
